Reference: patent US12503437B2, “1,1-dimethyl-2-[(E)-2-phenylethenyl]-1H-benzo[e]indole derivatives and uses thereof” (Kaunas University of Technology, priority 2023, dated 2025)
Like-named read-outs stand apart in the source and are kept apart here.

What was measured:
[1] = Absorption and fluorescence properties in water; format: physicochemical
Experimental: To determine the wavelength of light, at which 1,1-dimethyl-2-[(E)-2-phenylethenyl]-1H-benzo[e]indole derivatives should be irradiated for the investigation of their photodynamic activity, the absorption and fluorescence properties thereof were measured in water. The excitation wavelength λex was set to 380 nm. Based on the results an in-house constructed LED based light source specifically designed for the irradiation of 96-well microplates and Petri dishes (Tomecka et al., CZ302829B6, 2006) was chosen, with a maximal wavelength emission of 414 nm and light intensity set to 20 mW/cm^2.

[2] = test system: G361 cells (human skin melanoma); experiment: MTT cell viability assay with photodynamic treatment; format: cell-based
Experimental: (§1) For photodynamic treatments, G361 cells (human skin melanoma) were cultivated in DMEM medium without phenol red supplemented with 10% fetal bovine serum, 100 U/mL penicillin, 100 μg/mL streptomycin, 2 mM glutamine, at 37° C. in 5% CO2 atmosphere. Cells were treated with test compounds and after 4 h were irradiated (the maximal wavelength emission of 414 nm and different total doses up to 10 J/cm^2). Further cultivation lasted for subsequent 16, 24 or 72 h.
Cell viability (EC50) was determined using the MTT (Sigma-Aldrich) assay in 96-well microplates. Cells were seeded, next day treated with test compounds for 4 h and subsequently irradiated (the maximal wavelength emission of 414 nm and total dose of 2.5 and 10 J/cm^2). After irradiation, the cells were incubated for further 72 h and then the MTT solution was added. Cells were incubated for another 4 h at 37° C. and then the 0.1% SDS was added to the wells to solubilize the violet formazan crystals. The measurement of absorbance was carried out on reader Tecan Infinite M200Pro at 570 nm. Dark viability was measured in parallel under the same conditions without irradiation.

G361 cells [3] = experiment: Flow cytometric detection of cell death (sub-G1 populations); format: cell-based, human; conditions: for number of cells in sub-G1 population: G361 cells
Experimental: as §1
Asynchronous cells were seeded and, after a pre-incubation period, treated with compound 3g for 4 h, irradiated and after further 24 h of incubation, samples were fixed and stained with propidium iodide. DNA content was analyzed by flow cytometry using a 488 nm laser (BD FACS Verse with software BD FACSuite™, version 1.0.6.) and cell cycle distribution was analyzed using ModFit LT (Verity Software House).

caspases 3 and 7 = experiment: Caspase-3/7 assay; format: cell-based, human; conditions: G361 cells; 1.1 μM+10 J/cm^2
Experimental: The cell lysates were incubated for 4 h with 100 μM Ac-DEVD-AMC (the substrate of caspases 3 and 7) in the assay buffer (25 mM PIPES, 2 mM EGTA, 2 mM MgCl2, 5 mM DTT, pH 7.3). The fluorescence of the product was measured using a Fluoroskan Ascent microplate reader (Labsystems) at 355/460 nm (excitation/emission).
To confirm apoptosis as a mechanism of cell death, activity of pro-apoptotic caspases 3 and 7, which are involved in mediating cell death signalling transduction, was quantified upon treatment with compound 3g and light irradiation (FIG. 1).

G361 cells [4] = experiment: DNA damage and apoptotic cell death by immunoblotting analysis; format: cell-based, human; conditions: 24 h
Experimental: To confirm DNA damage caused by a combination of compound 3g and irradiation in G361 cells, phosphorylation of histone H2A.X at Ser-139 (γH2A.X), which is a well-accepted marker of DNA damage, was evaluated using immunoblotting analysis (FIG. 2). The cells were treated with different doses (0.1, 0.3 or 1.1 μM) of compound 3g for 4 h, then either kept in dark or exposed to light with a total irradiation dose of 10 J/cm^2 and cultivated for subsequent 24 h. After this period, the cells were harvested and analyzed by immunoblotting.
The cell lysates were prepared in RIPA buffer. Equal protein amounts were loaded and separated on SDS-polyacrylamide gels, electroblotted onto nitrocellulose membranes and after blocking, overnight incubation with specific primary antibodies and incubation with peroxidase-conjugated secondary antibodies, the peroxidase activity was detected with SuperSignal West Pico reagents (Thermo Scientific) using a CCD camera LAS-4000 (Fujifilm). All primary antibodies were diluted in TBS containing 4% BSA and 0.1% Tween 20. The specific antibodies were purchased from Cell Signaling (anti-PARP-1, clone 46D11; anti-caspase 7; HRP-linked secondary antibodies), Santa Cruz Biotechnology (anti-β-actin, clone C4), Millipore (anti-phospho-histone H2A.X, Ser139, clone JBW301).
The cleavage of PARP-1, an enzyme involved in DNA repair, which gets cut and inactivated by caspases during apoptotic cell death, was also apparent when combining said concentration and irradiation dose. […] It confirms that the above observation is a consequence of a photodynamic effect.

G361 cells [5] = experiment: Evaluation of cellular viability by microscopy (propidium iodide staining); format: cell-based, human; conditions: 1.1 μM+10 J/cm^2, 16 h after irradiation
Experimental: G361 cells were treated with compound 3g, 4 h later irradiated with 10 J/cm^2 and further cultivated for 16 h. Control cells were treated with the same compound without irradiation. After the incubation period, cells were stained with propidium iodide (final concentration 10 μg/mL) to evaluate their viability by fluorescence microscopy. In parallel, the morphology of treated cells was evaluated by light microscopy. Experiment clearly confirmed the ability of compound 3g to affect cellular viability after light irradiation in dose-dependent manner as shown by positive propidium iodide staining (>95% of analyzed cells at 1.1 μM of compound 3g+10 J/cm^2) as well as significant morphological changes reflecting ongoing cellular death (FIG. 3).

CC1(C)C(/C=C/c2ccc(C#N)c(F)c2)=Nc2ccc3ccccc3c21 [Compound 3g, 4-[(E)-2-(1,1-Dimethyl-1H-benzo[e]indol-2-yl)ethenyl]-2-fluorobenzonitrile]
Stokes shift [1]: 102 nm
λabs [1]: 433 nm
λem ([1]; excitation wavelength 380 nm): 535 nm
EC50 ([2]; G-361, G361 cells, light energy: Dark (Table 4), read-out: EC50 ± SD): 7600 ± 900 nM
EC50 ([2]; G-361, dark kept G361 cells, 4 h treatment, further 72 h, MTT, read-out: G361 - EC50, Dark): 6200 nM
EC50 ([2]; G-361, light or radiation study, G361 cells, light energy 2.5 J/cm^2 (Table 4), read-out: EC50 ± SD): 1200 ± 300 nM
EC50 ([2]; G-361, light or radiation study, G361 cells, light energy 10 J/cm^2 (Table 4), read-out: EC50 ± SD): 700 ± 100 nM
EC50 ([2]; G-361, light or radiation study, light irradiated (414 nm, 10 J/cm^2) G361 cells, 4 h treatment, irradiation, further 72 h, MTT, read-out: G361 - EC50, 10 J/cm^2): 600 nM
number of cells in sub-G1 population (G361 cells [3]; 0.3 μM, 1.1 J/cm^2, 24 h after irradiation): 0 (number of cells in sub-G1 population <10% (0))
number of cells in sub-G1 population (G361 cells [3]; 0.3 μM, 3.3 J/cm^2, 24 h after irradiation): 0 (number of cells in sub-G1 population <10% (0))
number of cells in sub-G1 population (G361 cells [3]; 0.3 μM, Dark, 24 h): 0 (number of cells in sub-G1 population <10% (0))
number of cells in sub-G1 population (G361 cells [3]; 1.1 μM, 1.1 J/cm^2, 24 h after irradiation): 0 (number of cells in sub-G1 population <10% (0))
number of cells in sub-G1 population (G361 cells [3]; 1.1 μM, 3.3 J/cm^2, 24 h after irradiation): + (10-50% (+))
number of cells in sub-G1 population (G361 cells [3]; 1.1 μM, Dark, 24 h): 0 (number of cells in sub-G1 population <10% (0))
number of cells in sub-G1 population (G361 cells [3]; 3.3 μM, 1.1 J/cm^2, 24 h after irradiation): + (10-50% (+))
number of cells in sub-G1 population (G361 cells [3]; 3.3 μM, 3.3 J/cm^2, 24 h after irradiation): ++ (>50% (++))
number of cells in sub-G1 population (G361 cells [3]; 3.3 μM, Dark, 24 h): 0 (number of cells in sub-G1 population <10% (0))
sub-diploid (sub-G1) populations (G361 cells [3]; treated and irradiated G361 cells, concentration and light irradiation dependent): increase
capacity to induce apoptosis (caspase 3/7 activity) (caspases 3 and 7): clearly apparent
H2A.X phosphorylation (Ser-139, γH2A.X) (G361 cells [4]; G361 cells kept in the dark, 0.1, 0.3 or 1.1 μM): did not show any H2A.X phosphorylation
H2A.X phosphorylation (Ser-139, γH2A.X) level (G361 cells [4]; G361 cells, 1.1 μM+10 J/cm^2): massive increase
cleavage of PARP-1 (G361 cells [4]; G361 cells, 1.1 μM+10 J/cm^2): apparent
caspase 7 cleavage (G361 cells [4]; G361 cells, treated and irradiated (10 J/cm^2)): cleavage activation of caspase 7
positive propidium iodide staining (G361 cells [5]): > 95 % of analyzed cells
